Experimental data taken from ChEMBL document CHEMBL5036372, “QuatCy-I2 and MHI-I2 in Photodynamic Therapy” (ACS Med Chem Lett, 2022).

Experiments:
U-87 MG = assay: Dark toxicity against human U-87 MG cells incubated for 48 hrs by Alamar blue assay; assay type: cell-based, U-87MG ATCC
[1] = Phototherapeutic index, ratio of IC50 for dark cytotoxicity against human U-87 MG cells to IC50 for light cytotoxicity against human U-87 MG cells preincubated for 6 to 24 hrs followed by light irradiation for 20 min and measured after 24 hrs dark incubation by Alamar blue assay; assay type: cell-based, U-87MG ATCC; details: time 6-24 hrs, read-out: Ratio IC50
[2] = Clearance in CD-1 mouse at 25 nmol, iv measured upto 480 mins by UV-Vis spectrophotometer method; assay type: ADME, organism-based; details: in vivo
[3] = Terminal half life in CD-1 mouse at 25 nmol, iv measured upto 480 mins by UV-Vis spectrophotometer method; assay type: ADME, organism-based; details: in vivo, read-out: beta t1/2
Mus musculus = assay: Antitumor activity against mouse implanted with mouse NIT-1 cells assessed as tumor to background ratio at 35 nmol, iv incubated for 4 hrs by fluorescence imaging analysis; assay type: functional
[4] = Biodistribution in bone marrow of mouse implanted with mouse NIT-1 cells at 35 nmol, iv incubated for 4 to 8 hrs by fluorescence imaging analysis; assay type: ADME, organism-based; details: in vivo, time 4-8 hrs
[5] = Biodistribution in lymph node of mouse implanted with mouse NIT-1 cells at 35 nmol, iv incubated for 4 to 8 hrs by fluorescence imaging analysis; assay type: ADME, organism-based; details: in vivo, time 4-8 hrs
[6] = Drug localization in kidney of CD-1 mouse at 25 nmol, iv measured after 4 hrs by fluorescence imaging analysis; assay type: ADME, organism-based; details: in vivo
[7] = Drug localization in liver of CD-1 mouse at 25 nmol, iv measured after 4 hrs by fluorescence imaging analysis; assay type: ADME, organism-based; details: in vivo
[8] = Drug localization in lungs of CD-1 mouse at 25 nmol, iv measured after 4 hrs by fluorescence imaging analysis; assay type: ADME, organism-based, Lung; details: in vivo
[9] = Half life in CD-1 mouse blood at 25 nmol, iv measured upto 480 mins by UV-Vis spectrophotometer method; assay type: ADME, organism-based
[10] = Biodistribution in peripheral tissue of mouse implanted with mouse NIT-1 cells at 35 nmol, iv incubated for 4 to 8 hrs by fluorescence imaging analysis; assay type: ADME, organism-based; details: in vivo, time 4-8 hrs
[11] = Drug localization in duodenum of CD-1 mouse at 25 nmol, iv measured after 4 hrs by fluorescence imaging analysis; assay type: ADME, organism-based; details: in vivo

SMILES | IC50 (U-87 MG) [µM] | selectivity ratio at 24 h [1] | clearance [2] [mL/min/kg] | half-life [3] [h] | Ratio (Mus musculus) | Drug uptake [4] | Drug uptake [5] | Drug uptake [6] | Drug uptake [7] | Drug uptake [8] | half-life [9] [h] | Drug uptake [10] | Drug uptake [11]
CC1(C)C(/C=C/C2=C(Cl)C(=C/C=C3/N(CCCCCC(=O)O)c4ccccc4C3(C)C)/CCC2)=[N+](CCCCCC(=O)O)c2ccccc21 | 19.2 | – | – | – | – | – | – | – | – | – | – | – | –
CC1(C)C(/C=C/C2=C(Cl)C(=C/C=C3/N(CCCCCC(=O)O)c4ccc(I)cc4C3(C)C)/C[N+](C)(C)C2)=[N+](CCCCCC(=O)O)c2ccc(I)cc21 | 62.4 | 72.8 | 5 | 0.917 | 8.98 | Active | Active | Active | Active | Not Active | – | – | –
CC1(C)C(/C=C/C2=C(Cl)C(=C/C=C3/N(CCCCCC(=O)O)c4ccccc4C3(C)C)/C[N+](C)(C)C2)=[N+](CCCCCC(=O)O)c2ccccc21 | > 100 | – | – | – | – | – | – | – | – | – | – | – | –
CC1(C)C(/C=C/C2=C(Cl)C(=C/C=C3/N(CCCCCC(=O)O)c4ccc(I)cc4C3(C)C)/CCC2)=[N+](CCCCCC(=O)O)c2ccc(I)cc21 | 11.4 | 2.56 | 0.2 | – | 6.5 | – | – | – | Active | – | 1.93 | Active | Active
